From patent US11001560B2, “Compound for blocking absorption of heavy metals by plants and a composition containing the same” (SICHUAN HUI TAI AGRICULTURAL TECHNOLOGY CO. LTD., priority 2018, dated 2021)

Experiments:
bok choy = test: Potted experiment: effect of compound of formula I on reducing heavy metal (Cd, Pb) content in vegetables; format: in vivo
Experimental: (§1) Potted experiments were carried out. The test soil was collected from the topsoil (0-20 cm) of farmland in the outskirts of Chengdu, Sichuan Province. The soil type was purple soil, with a total lead content of 1209.21 mg kg^−1 and a total cadmium content of 8.06 mg kg^−1. After the soil samples were collected, the plant residues were removed, air-dried, and passed through a 5 mm siever for later use. Test plants were bok choy and pepper. The sieved soil was filled into a tray, and 80 g of soil was filled in each tray. Before the planting, watering was carried out for 3 days to maintain the field water holding capacity of about 60%. Seeds of uniform size were selected. The surface of the seed was sterilized with ethanol: 30% H2O2 (V:V=1:1) for 3 minutes, and rinsed with sterile deionized water. The sterilized plant seeds were divided into two groups. One group was soaked in a deionized aqueous solution (5 g/L) of the compound of formula I for 4 hours, and was set as the experimental group. The other group was soaked in deionized water for the same time as the control group. The process was repeated 4 times. The seeds after soaking were sowed in a pot. After 1 week after emergence, 3 plants were left in each pot. The above soaking treatment was performed again, and the roots of the experimental group and the control group were soaked with 5 mL of an aqueous solution containing a compound of formula I and deionized water per pot, respectively. Watering the plant daily was necessary to ensure the necessary water for plant growth. Plants were harvested after 40 days of growth. The plants were removed from the pot and washed with deionized water. After harvesting, the plants were cut into roots and above ground parts along the junction of the rhizomes. The plants were put in an oven at 105° C. for 15 minutes, dried at 70° C., and weighed the dry weight of roots and above ground parts. The plant samples were grounded and digested by the nitric acid-perchloric acid method. The contents of heavy metals Pb and Cd in the plants were determined by atomic absorption spectrophotometer.

pepper = test: as above; format: in vivo
Experimental: as §1

[1] = experimental group (5 g/L compound of formula I) vs deionized water control
[2] = seeds soaked 4 hours in 5 g/L aqueous solution, roots soaked again with 5 mL per pot, Pb/Cd-contaminated soil, harvested after 40 days, atomic absorption

With `C/C=C/C(C[C@]1(O)CCNC[C@H](O)CCC2C=CCC(=O)C2C(=O)C/C=C/C=C/C[C@@H](O)C1)OC` (stereo partly shown) [compound of formula I] the “Cd and Pb concentrations in the above ground parts and below ground parts of bok choy, compared with the control group” value (bok choy; [1]) was “significantly reduce”, the “Cd Concentration in Vegetables, Above Ground Parts, Bok Choy” value (bok choy; [2]) was 2.08 ± 0.19 mg/L and the “Cd Concentration in Vegetables, Below Ground Parts, Bok Choy” value (bok choy; [2]) was 2.01 ± 0.33 mg/L. The “Pb Concentration in Vegetables, Above Ground Parts, Bok Choy” value (bok choy; [2]) was 1.51 ± 0.06 mg/L, the “Pb Concentration in Vegetables, Below Ground Parts, Bok Choy” value (bok choy; [2]) was 6.71 ± 1.08 mg/L and the “Cd and Pb concentrations in the above ground parts and below ground parts of peppers, compared with the control group” value (pepper; [1]) was “significantly reduce”. The “Cd Concentration in Vegetables, Above Ground Parts, Pepper” value (pepper; [2]) was 2.89 ± 0.39 mg/L, the “Cd Concentration in Vegetables, Below Ground Parts, Pepper” value (pepper; [2]) was 4.58 ± 0.11 mg/L and the “Pb Concentration in Vegetables, Above Ground Parts, Pepper” value (pepper; [2]) was 1.32 ± 0.08 mg/L. For the same molecule, the “Pb Concentration in Vegetables, Below Ground Parts, Pepper” value (pepper; [2]) was 5.11 ± 0.63 mg/L.
